Source: PubChem BioAssay AID1259407 (Chemical Carcinogenesis Research Information System (CCRIS), 2018)
Calls of active or inactive are those of the source. No rule for the calls is given here.

System: CCRIS mutagenicity, Ames/micronucleus/aberration tests
Assay: CCRIS mutagenicity studies

Measured: mutagenic call

CN(C)CCN(Cc1cccs1)c1ccccn1
inactive: Test System: AMES SALMONELLA TYPHIMURIUM, Strain/Indicator: TA97, Metabolic Activation: RAT, LIVER, S-9, AROCLOR 1254, Method: STANDARD PLATE inactive; negative | Test System: AMES SALMONELLA TYPHIMURIUM, Strain/Indicator: TA98, Metabolic Activation: HAMSTER LIVER S-9, AROCLOR 1254 (10%), Method: PREINCUBATION inactive; negative | Test System: AMES SALMONELLA TYPHIMURIUM, Strain/Indicator: TA98, Metabolic Activation: NONE, Method: PREINCUBATION inactive; negative | Test System: AMES SALMONELLA TYPHIMURIUM, Strain/Indicator: TA98, Metabolic Activation: NONE, Method: STANDARD PLATE inactive; negative | Test System: AMES SALMONELLA TYPHIMURIUM, Strain/Indicator: TA98, Metabolic Activation: RAT LIVER S-9, AROCLOR 1254 (10%), Method: PREINCUBATION inactive; negative | Test System: AMES SALMONELLA TYPHIMURIUM, Strain/Indicator: TA98, Metabolic Activation: RAT, LIVER, S-9, AROCLOR 1254, Method: PREINCUBATION inactive; negative | Test System: AMES SALMONELLA TYPHIMURIUM, Strain/Indicator: TA98, Metabolic Activation: RAT, LIVER, S-9, AROCLOR 1254, Method: STANDARD PLATE inactive; negative | Test System: AMES SALMONELLA TYPHIMURIUM, Strain/Indicator: TA98, Metabolic Activation: RAT, LIVER, S-9, Method: STANDARD PLATE inactive; negative | Test System: AMES SALMONELLA TYPHIMURIUM, Strain/Indicator: TA98, Method: STANDARD PLATE inactive; negative | Test System: AMES SALMONELLA TYPHIMURIUM, Strain/Indicator: TA100, Metabolic Activation: HAMSTER LIVER S-9, AROCLOR 1254 (10%), Method: PREINCUBATION inactive; negative | Test System: AMES SALMONELLA TYPHIMURIUM, Strain/Indicator: TA100, Metabolic Activation: NONE, Method: PREINCUBATION inactive; negative | Test System: AMES SALMONELLA TYPHIMURIUM, Strain/Indicator: TA100, Metabolic Activation: NONE, Method: STANDARD PLATE inactive; negative | Test System: AMES SALMONELLA TYPHIMURIUM, Strain/Indicator: TA100, Metabolic Activation: RAT LIVER S-9, AROCLOR 1254 (10%), Method: PREINCUBATION inactive; negative | Test System: AMES SALMONELLA TYPHIMURIUM, Strain/Indicator: TA100, Metabolic Activation: RAT, LIVER, S-9, AROCLOR 1254, Method: STANDARD PLATE inactive; negative | Test System: AMES SALMONELLA TYPHIMURIUM, Strain/Indicator: TA100, Metabolic Activation: RAT, LIVER, S-9, Method: STANDARD PLATE inactive; negative | Test System: AMES SALMONELLA TYPHIMURIUM, Strain/Indicator: TA100, Method: STANDARD PLATE inactive; negative | Test System: AMES SALMONELLA TYPHIMURIUM, Strain/Indicator: TA104, Metabolic Activation: NONE, Method: STANDARD PLATE inactive; negative | Test System: AMES SALMONELLA TYPHIMURIUM, Strain/Indicator: TA104, Metabolic Activation: RAT, LIVER, S-9, AROCLOR 1254, Method: STANDARD PLATE inactive; negative | Test System: AMES SALMONELLA TYPHIMURIUM, Strain/Indicator: TA104, Metabolic Activation: RAT, LIVER, S-9, Method: STANDARD PLATE inactive; negative | Test System: AMES SALMONELLA TYPHIMURIUM, Strain/Indicator: TA104, Method: STANDARD PLATE inactive; negative | Test System: AMES SALMONELLA TYPHIMURIUM, Strain/Indicator: TA1535, Metabolic Activation: HAMSTER LIVER S-9, AROCLOR 1254 (10%), Method: PREINCUBATION inactive; negative | Test System: AMES SALMONELLA TYPHIMURIUM, Strain/Indicator: TA1535, Metabolic Activation: NONE, Method: PREINCUBATION inactive; negative | Test System: AMES SALMONELLA TYPHIMURIUM, Strain/Indicator: TA1535, Metabolic Activation: RAT LIVER S-9, AROCLOR 1254 (10%), Method: PREINCUBATION inactive; negative | Test System: AMES SALMONELLA TYPHIMURIUM, Strain/Indicator: TA1535, Metabolic Activation: RAT, LIVER, S-9, AROCLOR 1254, Method: STANDARD PLATE inactive; negative | Test System: AMES SALMONELLA TYPHIMURIUM, Strain/Indicator: TA1535, Metabolic Activation: RAT, LIVER, S-9, Method: STANDARD PLATE inactive; negative | Test System: AMES SALMONELLA TYPHIMURIUM, Strain/Indicator: TA1535, Method: STANDARD PLATE inactive; negative | Test System: AMES SALMONELLA TYPHIMURIUM, Strain/Indicator: TA1537, Metabolic Activation: HAMSTER LIVER S-9, AROCLOR 1254 (10%), Method: PREINCUBATION inactive; negative | Test System: AMES SALMONELLA TYPHIMURIUM, Strain/Indicator: TA1537, Metabolic Activation: NONE, Method: PREINCUBATION inactive; negative | Test System: AMES SALMONELLA TYPHIMURIUM, Strain/Indicator: TA1537, Metabolic Activation: NONE, Method: STANDARD PLATE inactive; negative | Test System: AMES SALMONELLA TYPHIMURIUM, Strain/Indicator: TA1537, Metabolic Activation: RAT LIVER S-9, AROCLOR 1254 (10%), Method: PREINCUBATION inactive; negative | Test System: AMES SALMONELLA TYPHIMURIUM, Strain/Indicator: TA1537, Metabolic Activation: RAT, LIVER, S-9, AROCLOR 1254, Method: STANDARD PLATE inactive; negative | Test System: AMES SALMONELLA TYPHIMURIUM, Strain/Indicator: TA1537, Metabolic Activation: RAT, LIVER, S-9, Method: STANDARD PLATE inactive; negative | Test System: AMES SALMONELLA TYPHIMURIUM, Strain/Indicator: TA1537, Method: STANDARD PLATE inactive; negative | Test System: AMES SALMONELLA TYPHIMURIUM, Strain/Indicator: TA1538, Metabolic Activation: RAT, LIVER, S-9, AROCLOR 1254, Method: STANDARD PLATE inactive; negative | Test System: AMES SALMONELLA TYPHIMURIUM, Strain/Indicator: TA2638, Metabolic Activation: NONE, Method: STANDARD PLATE inactive; negative | Test System: AMES SALMONELLA TYPHIMURIUM, Strain/Indicator: TA2638, Metabolic Activation: RAT, LIVER, S-9, AROCLOR 1254, Method: STANDARD PLATE inactive; negative | Test System: AMES SALMONELLA TYPHIMURIUM, Strain/Indicator: TA2638, Metabolic Activation: RAT, LIVER, S-9, Method: STANDARD PLATE inactive; negative | Test System: AMES SALMONELLA TYPHIMURIUM, Strain/Indicator: TA2638, Method: STANDARD PLATE inactive; negative | Test System: CHINESE HAMSTER OVARY, Strain/Indicator: CHO-K1-BH4 (HGPRT), Metabolic Activation: NONE, Method: SUSPENSION/PLATE inactive; negative | Test System: CHINESE HAMSTER OVARY, Strain/Indicator: CHO-K1-BH4 (HGPRT), Metabolic Activation: RAT, LIVER, S-9, AROCLOR, Method: SUSPENSION/PLATE inactive; negative | Test System: E. COLI, Strain/Indicator: WP2 UVRA, Metabolic Activation: NONE, Method: STANDARD PLATE inactive; negative | Test System: E. COLI, Strain/Indicator: WP2 UVRA, Metabolic Activation: RAT, LIVER, S-9, AROCLOR 1254, Method: STANDARD PLATE inactive; negative | Test System: E. COLI, Strain/Indicator: WP2 UVRA, Metabolic Activation: RAT, LIVER, S-9, Method: STANDARD PLATE inactive; negative | Test System: E. COLI, Strain/Indicator: WP2 UVRA, Method: STANDARD PLATE inactive; negative | Test System: MOUSE LYMPHOMA, Strain/Indicator: L5178Y (TK+/+)/TRIFLUOROTHYMIDINE, Metabolic Activation: RAT LIVER S-9, AROCLOR 1254, Method: SUSPENSION/PLATE inactive; negative | Test System: MOUSE LYMPHOMA, Strain/Indicator: L5178Y (TK+/TK-), Metabolic Activation: NONE, Method: SUSPENSION/PLATE inactive; negative | Test System: MOUSE LYMPHOMA, Strain/Indicator: L5178Y (TK+/TK-), Metabolic Activation: RAT, LIVER, S-9, AROCLOR 1254, Method: SUSPENSION/PLATE inactive; negative
active: Test System: MOUSE LYMPHOMA, Strain/Indicator: L5178Y (TK+/TK-), Metabolic Activation: RAT, LIVER, S-9, AROCLOR 1242 AND 1254 (2:1), Method: SUSPENSION/PLATE active; positive | Test System: MOUSE LYMPHOMA, Strain/Indicator: L5178Y (TK+/TK-), Metabolic Activation: RAT, LIVER, S-9, AROCLOR 1242 AND 1254 (2:1 MIXTURE), Method: SUSPENSION/PLATE active; positive | Test System: UDS RAT HEPATOCYTES, Strain/Indicator: THY INCORP, Metabolic Activation: NONE, Method: AUTORADIOGRAPHY (SERUM-FREE MEDIA) active; positive
